One test has as its target lethal factor (LF) (Bacillus anthracis, UniProt P15917). In words: biochemical. It counts as biochemical.
For another test, the target named is BoNT A (Clostridium botulinum, UniProt P0DPI0). The test can be described thus: biochemical.

The values below come from patent US7947717B2 (priority 2008, dated 2011).

Read-outs that look alike come from different tables or passages of the source.

Sequence of BoNT A (P0DPI0 whole entry, looked up): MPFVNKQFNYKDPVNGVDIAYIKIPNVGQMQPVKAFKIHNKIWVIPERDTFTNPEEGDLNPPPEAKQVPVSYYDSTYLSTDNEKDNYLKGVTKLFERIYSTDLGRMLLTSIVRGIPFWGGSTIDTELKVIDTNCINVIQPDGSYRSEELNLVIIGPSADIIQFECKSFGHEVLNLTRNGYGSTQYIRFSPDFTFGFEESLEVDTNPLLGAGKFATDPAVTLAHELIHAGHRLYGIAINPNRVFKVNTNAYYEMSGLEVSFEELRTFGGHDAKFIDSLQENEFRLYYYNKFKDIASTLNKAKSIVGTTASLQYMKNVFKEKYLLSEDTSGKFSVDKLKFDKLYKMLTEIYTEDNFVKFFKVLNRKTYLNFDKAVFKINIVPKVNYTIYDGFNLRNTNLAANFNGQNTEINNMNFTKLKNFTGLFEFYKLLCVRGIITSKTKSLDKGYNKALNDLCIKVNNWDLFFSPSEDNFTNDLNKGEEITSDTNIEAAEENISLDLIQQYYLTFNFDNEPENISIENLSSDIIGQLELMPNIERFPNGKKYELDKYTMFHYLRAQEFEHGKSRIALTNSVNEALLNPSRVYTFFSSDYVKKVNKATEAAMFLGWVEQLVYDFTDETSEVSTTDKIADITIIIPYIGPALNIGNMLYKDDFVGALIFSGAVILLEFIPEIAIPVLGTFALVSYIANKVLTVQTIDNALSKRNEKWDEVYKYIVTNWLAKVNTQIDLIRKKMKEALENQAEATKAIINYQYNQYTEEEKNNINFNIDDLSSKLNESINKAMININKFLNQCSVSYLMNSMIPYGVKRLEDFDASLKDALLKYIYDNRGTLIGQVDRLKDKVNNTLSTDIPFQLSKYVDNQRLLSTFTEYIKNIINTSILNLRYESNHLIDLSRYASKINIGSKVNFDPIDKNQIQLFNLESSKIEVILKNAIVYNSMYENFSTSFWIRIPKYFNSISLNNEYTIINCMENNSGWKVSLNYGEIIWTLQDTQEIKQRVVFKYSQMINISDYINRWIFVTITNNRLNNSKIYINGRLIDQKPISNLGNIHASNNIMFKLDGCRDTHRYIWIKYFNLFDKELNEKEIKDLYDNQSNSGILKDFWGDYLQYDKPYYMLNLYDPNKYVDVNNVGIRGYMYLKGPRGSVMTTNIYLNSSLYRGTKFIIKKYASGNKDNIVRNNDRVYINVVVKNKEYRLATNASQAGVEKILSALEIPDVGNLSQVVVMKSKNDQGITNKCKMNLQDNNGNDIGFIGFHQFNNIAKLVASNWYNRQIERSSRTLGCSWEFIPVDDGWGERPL
Sequence of lethal factor (LF) (P15917 34-809 limits assumed): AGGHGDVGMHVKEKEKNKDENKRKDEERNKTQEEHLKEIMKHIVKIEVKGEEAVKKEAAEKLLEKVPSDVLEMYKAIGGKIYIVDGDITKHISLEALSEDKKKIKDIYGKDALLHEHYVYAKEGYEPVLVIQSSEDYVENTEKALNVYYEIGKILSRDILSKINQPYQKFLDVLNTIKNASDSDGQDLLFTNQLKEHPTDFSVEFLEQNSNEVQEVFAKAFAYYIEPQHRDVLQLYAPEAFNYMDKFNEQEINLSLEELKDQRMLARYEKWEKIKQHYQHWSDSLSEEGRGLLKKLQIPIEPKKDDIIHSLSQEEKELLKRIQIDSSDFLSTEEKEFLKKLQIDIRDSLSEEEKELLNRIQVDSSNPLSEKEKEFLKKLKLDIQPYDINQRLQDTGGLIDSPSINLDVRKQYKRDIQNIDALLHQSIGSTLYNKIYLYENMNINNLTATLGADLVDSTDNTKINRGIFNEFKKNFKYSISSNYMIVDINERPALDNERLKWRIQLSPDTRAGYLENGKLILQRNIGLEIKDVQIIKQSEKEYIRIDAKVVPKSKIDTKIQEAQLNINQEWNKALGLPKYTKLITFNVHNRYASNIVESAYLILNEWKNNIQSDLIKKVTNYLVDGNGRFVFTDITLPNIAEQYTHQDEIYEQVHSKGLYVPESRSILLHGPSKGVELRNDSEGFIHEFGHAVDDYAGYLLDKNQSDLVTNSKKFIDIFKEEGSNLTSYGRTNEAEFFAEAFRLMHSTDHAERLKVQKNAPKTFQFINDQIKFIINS

One may read the IC50 as the concentration at which inhibition is half-maximal. In the case of `O=C(O)CN1C(=O)/C(=C/c2c[nH]c3ccc(Br)cc23)SC1=S` [Compound 61, (Z)-2-(5-((5-bromo-1H-indol-3-yl)methylene)-4-oxo-2-thioxothiazolidin-3-yl)acetic acid], the IC50 on lethal factor (LF) (pH 7.4, read-out: LF IC50) was 7.04 µM; on BoNT A, over 200 µM.
On to `CN1CCCN(c2ccc(/C=C3\SC(=S)N(CC(=O)O)C3=O)cc2)CC1` [Compound 51], for which, at BoNT A, the IC50 is over 50 µM.
Consider `O=C(O)C(c1ccccc1)N1C(=O)/C(=C/c2ccc(-c3cccc(Cl)c3)o2)SC1=S` (centres unmarked) [Compound 8], for which the IC50 came out at 4.34 µM on lethal factor (LF) (pH 7.4, read-out: LF IC50) and 127 µM against BoNT A.
Consider `O=C(O)CN1C(=O)/C(=C/c2ccc3c(c2)OCO3)SC1=S` [Compound 53, (Z)-2-(5-(benzo[d][1,3]dioxol-5-ylmethylene)-4-oxo-2-thioxothiazolidin-3-yl)acetic acid], for which the IC50 at lethal factor (LF) (pH 7.4, read-out: LF IC50) is 83.3 µM; on BoNT A, over 200 µM.
With `O=C(O)CN1C(=O)/C(=C/c2cc(-c3ccc(Cl)cc3)[nH]n2)SC1=S` [Compound 28], the values for the IC50 at lethal factor (LF) and on BoNT A were over 100 µM and over 200 µM, respectively.
Take `O=C(O)CN1C(=O)/C(=C/c2cn(-c3ccccc3)nc2-c2ccc(S(=O)(=O)N3CCOCC3)cc2)SC1=S` [Compound 31]: the 50% inhibitory concentration (IC50) on lethal factor (LF) (pH 7.4, read-out: LF IC50) is 4.26 µM; at BoNT A, over 200 µM.
Take `O=C(O)CN1C(=O)/C(=C/c2csc3ccccc23)SC1=S` [Compound 57, (Z)-2-(5-(benzo[b]thiophen-3-ylmethylene)-4-oxo-2-thioxothiazolidin-3-yl)acetic acid]: the IC50 is 13 µM on lethal factor (LF) (pH 7.4, read-out: LF IC50) and over 200 µM at BoNT A.
The corresponding values for `O=C1/C(=C/c2ccc(-c3ccc(Cl)c(Cl)c3)o2)SC(=S)N1CCS(=O)(=O)O` [Compound 11, (Z)-2-(5-((5-(3,4-dichlorophenyl)furan-2-yl)methylene)-4-oxo-2-thioxothiazolidin-3-yl)ethanesulfonic acid] are 1.78 µM and 11.1 µM.
With `CN(CCOc1ccc(CC2SC(=O)NC2=O)cc1)c1ccccn1` (centres unmarked) [Compound 2, 5-(4-(2-(methyl(pyridin-2-yl)amino)ethoxy)benzyl)thiazolidine-2,4-dione, reference compound], the “inhibition of LF, kinetic assay (in words)” value against lethal factor (LF) was “did not appreciably inhibit”. For the same compound, at BoNT A, the “inhibition of BoNT A, kinetic assay (in words)” value was “did not appreciably inhibit”.
As for `O=C(O)CC(C(=O)O)N1C(=O)/C(=C/c2ccc(-c3ccc(Br)cc3)o2)SC1=S` (centres unmarked) [Compound 5], the 50% inhibitory concentration (IC50) is 3.98 µM on lethal factor (LF) (pH 7.4, read-out: LF IC50) and 51.6 µM against BoNT A.
In turn, `O=C1/C(=C/c2ccc(-c3cccc(Cl)c3Cl)o2)SC(=S)N1C1CCS(=O)(=O)C1` (centres unmarked) [Compound 14, (5Z)-5-{[5-(2,3-dichlorophenyl)-2-furyl]methylene}-3-(1,1-dioxidotetrahydrothien-3-yl)-2-thioxo-1,3-thiazolidin-4-one] registered an IC50 on BoNT A of over 200 µM.
The same measure, in the same setting: the same measure for `O=C1/C(=C/c2ccc(-c3ccc(Cl)cc3)o2)SC(=S)N1CCS(=O)(=O)O` [Compound 12, (Z)-2-(5-((5-(4-chlorophenyl)furan-2-yl)methylene)-4-oxo-2-thioxothiazolidin-3-yl)ethanesulfonic acid]: over 200 µM.
For the compound `O=C(O)CN1C(=O)/C(=C/c2cccc(N3CCCC3)c2)SC1=S` [Compound 50, (Z)-2-(5-(3-(pyrrolidin-1-yl)benzylidene)-4-oxo-2-thioxothiazolidin-3-yl)acetic acid], the IC50 on lethal factor (LF) (pH 7.4, read-out: LF IC50) was 28.1 µM; against BoNT A it was over 200 µM.
As usually defined, the Ki is the equilibrium dissociation constant of an inhibitor or competing ligand from its target. `O=C1/C(=C/c2ccc(-c3cccc([N+](=O)[O-])c3)o2)SC(=S)N1CCS(=O)(=O)O` [Compound 9, (Z)-2-(5-((5-(3-nitrophenyl)furan-2-yl)methylene)-4-oxo-2-thioxothiazolidin-3-yl)ethanesulfonic acid]: the affinity on lethal factor (LF), expressed as Ki, was 0.1 µM. For the same compound, on lethal factor (LF) (pH 7.4, read-out: LF IC50), the IC50 is 1.09 µM.
Regarding `O=C1/C(=C/c2cn(-c3ccccc3)nc2-c2ccc(Cl)cc2)SC(=S)N1C1CCS(=O)(=O)C1` (centres unmarked) [Compound 45, 5-[1-[3-(4-Chloro-phenyl)-1-phenyl-1H-pyrazol-4-yl]-meth-(Z)-ylidene]-3-(1,1-dioxo-tetrahydro-thiophen-3-yl)-2-thioxo-thiazolidin-4-one], at BoNT A, the IC50 is over 200 µM.
Regarding `CCOc1ccc(-c2nn(-c3ccccc3)cc2/C=C2\SC(=S)N(CC(=O)O)C2=O)c(C)c1` [Compound 37, (Z)-2-(5-((3-(4-ethoxy-2-methylphenyl)-1-phenyl-1H-pyrazol-4-yl)methylene)-4-oxo-2-thioxothiazolidin-3-yl)acetic acid], the IC50 at lethal factor (LF) (pH 7.4, read-out: LF IC50) is 4.87 µM; at BoNT A it was 130 µM.
The corresponding values for `O=C(O)CN1C(=O)/C(=C/c2cccc(-n3cccn3)c2)SC1=S` [Compound 52, (Z)-2-(5-(3-(1H-pyrazol-1-yl)benzylidene)-4-oxo-2-thioxothiazolidin-3-yl)acetic acid] are 27.9 µM and over 200 µM.
The like results for `O=C(O)CN1C(=O)/C(=C/c2cccc3c2oc2ccccc23)SC1=S` [Compound 55, (Z)-2-(5-(dibenzofuran-6-ylmethylene)-4-oxo-2-thioxothiazolidin-3-yl)acetic acid] were, in that order, 2.96 µM and 160 µM.
For `O=C(O)C(c1ccccc1)N1C(=O)/C(=C/c2ccc(-c3ccc(Cl)cc3Cl)o2)SC1=S` (centres unmarked) [Compound 13], the Ki on lethal factor (LF) was 1 µM. In addition, the IC50 on lethal factor (LF) (pH 7.4, read-out: LF IC50) was 1.2 µM; on BoNT A it was over 200 µM.
In the case of `O=C(O)CN1C(=O)/C(=C/c2c[nH]c3ccccc23)SC1=S` [Compound 60, (Z)-2-(5-((1H-indol-3-yl)methylene)-4-oxo-2-thioxothiazolidin-3-yl)acetic acid], the IC50 on lethal factor (LF) (pH 7.4, read-out: LF IC50) is 38.7 µM; at BoNT A, over 200 µM.
The like results for `O=C(O)CN1C(=O)/C(=C/c2ccc(-c3ccccc3)cc2)SC1=S` [Compound 49, (Z)-2-(5-(4-phenylbenzylidene)-4-oxo-2-thioxothiazolidin-3-yl)acetic acid] were, in that order, 6.2 µM and 54.6 µM.
The like results for `CCOc1ccc(-c2nn(-c3ccccc3)cc2/C=C2\SC(=S)N(CC(=O)O)C2=O)cc1F` [Compound 46, (Z)-2-(5-((3-(4-ethoxy-3-fluorophenyl)-1-phenyl-1H-pyrazol-4-yl)methylene)-4-oxo-2-thioxothiazolidin-3-yl)acetic acid] were, in that order, 3.45 µM and over 200 µM.
The like results for `O=C1/C(=C/c2ccc(-c3cccc(Cl)c3)o2)SC(=S)N1CCS(=O)(=O)O` [Compound 10, (Z)-2-(5-((5-(3-chlorophenyl)furan-2-yl)methylene)-4-oxo-2-thioxothiazolidin-3-yl)ethanesulfonic acid] were, in that order, 1.7 µM and 19.9 µM.
Regarding `O=C1/C(=C/c2cn(-c3ccccc3)nc2-c2ccc(S(=O)(=O)N3CCOCC3)cc2)SC(=S)N1CCS(=O)(=O)O` [Compound 42, (Z)-2-(5-((3-(4-(morpholinosulfonyl)phenyl)-1-phenyl-1H-pyrazol-4-yl)methylene)-4-oxo-2-thioxothiazolidin-3-yl)ethanesulfonic acid], the IC50 on lethal factor (LF) (pH 7.4, read-out: LF IC50) is 1.86 µM; against BoNT A, 85 µM.
The like results for `Cc1nc(-c2ccccc2)c(/C=C2\SC(=S)N(CC(=O)O)C2=O)s1` [Compound 19, (Z)-2-(5-((2-methyl-4-phenylthiazol-5-yl)methylene)-4-oxo-2-thioxothiazolidin-3-yl)acetic acid] were, in that order, 41 µM and over 200 µM.
As for `CC(C)(C)OC(=O)N1CCC(c2nc(/C=C3\SC(=S)N(CC(=O)O)C3=O)cs2)CC1` [Compound 18, (Z)-2-(5-((2-(1-(tert-butoxycarbonyl)piperidin-4-yl)thiazol-4-yl)methylene)-4-oxo-2-thioxothiazolidin-3-yl)acetic acid], the 50% inhibitory concentration (IC50) at lethal factor (LF) (pH 7.4, read-out: LF IC50) came out at 20 µM; against BoNT A, 176 µM.
The corresponding values for `COc1ccc(-c2nn(-c3ccccc3)cc2/C=C2\SC(=S)N(CC(=O)O)C2=O)cc1C` [Compound 36, (Z)-2-(5-((3-(4-methoxy-3-methylphenyl)-1-phenyl-1H-pyrazol-4-yl)methylene)-4-oxo-2-thioxothiazolidin-3-yl)acetic acid] are 3.58 µM and 127 µM.
The like results for `Cc1nc(/C=C2\SC(=S)N(CC(=O)O)C2=O)c(C)o1` [Compound 17, (Z)-2-(5-((2,5-dimethyloxazol-4-yl)methylene)-4-oxo-2-thioxothiazolidin-3-yl)acetic acid] were, in that order, 100 µM and over 200 µM.
With `O=C(O)CN1C(=O)/C(=C/c2cn(-c3ccccc3)nc2-c2ccccc2)SC1=S` [Compound 30, (Z)-2-(5-((1,3-diphenyl-1H-pyrazol-4-yl)methylene)-4-oxo-2-thioxothiazolidin-3-yl)acetic acid], the IC50 on lethal factor (LF) (pH 7.4, read-out: LF IC50) worked out at 6.25 µM; at BoNT A it was 111 µM.
The like results for `O=C(O)CN1C(=O)/C(=C/c2cccc(Br)n2)SC1=S` [Compound 56, (Z)-2-(5-((6-bromopyridin-2-yl)methylene)-4-oxo-2-thioxothiazolidin-3-yl)acetic acid] were, in that order, 58 µM and over 200 µM.
The corresponding values for `O=C(O)CCC(C(=O)O)N1C(=O)/C(=C/c2ccc(-c3ccc([N+](=O)[O-])cc3)o2)SC1=S` (centres unmarked) [Compound 6] are 4.91 µM and 148 µM.
As to `O=C(O)CN1C(=O)/C(=C/c2c[nH]nc2-c2ccc(C(F)(F)F)cc2)SC1=S` [Compound 27, (Z)-2-(4-oxo-2-thioxo-5-((3-(4-(trifluoromethyl)phenyl)-1H-pyrazol-4-yl)methylene)thiazolidin-3-yl)acetic acid], the IC50 is 24.6 µM on lethal factor (LF) and over 200 µM against BoNT A.
For `O=C(O)CN1C(=O)/C(=C/c2cc3nccnc3s2)SC1=S` [Compound 59], the IC50 was 24.9 µM at lethal factor (LF) (pH 7.4, read-out: LF IC50) and over 200 µM at BoNT A.
At BoNT A, `O=C1/C(=C/c2cn(-c3ccccc3)nc2-c2ccccc2)SC(=S)N1C1CCS(=O)(=O)C1` (centres unmarked) [Compound 44, 3-(1,1-Dioxo-tetrahydro-thiophen-3-yl)-5-[1-(1,3-diphenyl-1H-pyrazol-4-yl)-meth-(Z)-ylidene]-2-thioxo-thiazolidin-4-one] displayed a half-maximal inhibitory concentration (IC50) of over 200 µM.
On the same count and under the same terms, the same measure for `O=C1/C(=C/c2ccc(-c3cc(Cl)ccc3Cl)o2)SC(=S)N1CC1CCCO1` (centres unmarked) [Compound 16, (Z)-5-((5-(2,5-dichlorophenyl)furan-2-yl)methylene)-3-((tetrahydrofuran-2-yl)methyl)-2-thioxothiazolidin-4-one]: over 50 µM.
